# Laboratory results from paper PMC4741700 (Oncotarget, 2015).
# Where two headings read alike, the source gives them in different places.
# Key:
# Myc-Max(S) heterodimers = Myc-Max(S) heterodimers (Homo sapiens, UniProt P01106+P61244); assay: EMSA, DNA binding by Myc-Max(S) heterodimers; assay type: biochemical; details: for fold more potent than celastrol: EMSA Myc-Max(S)
# Description: B. Formation of a typical Michael adduct with cysteine as an example (depicted in blue) is shown. […] C. […] Recombinant Myc bHLH-ZIP domain (residues 353-437), and full-length Max(S) and Max(L) were used for EMSAs along with a HEX-tagged, double-stranded oligonucleotide containing a Myc binding E-box element (CACGTG). Max(S) is the 151 residue isoform that homodimerizes efficiently but only binds DNA as a heterodimer in association with Myc. The 160 residue isoform, termed Max(L), that does bind DNA as a homodimer and that closely mimics the Myc-Max(S) association was used as a control. D. Graphical representation of EMSA results from triplicate assays performed as described in C.
# (§1) The 83 residue His6-tagged Myc bHLH-ZIP domain (amino acids […]), and full-length His6-tagged Max(S) and His6-tagged Max(L) were expressed and purified as previously described. 20 nmol each of Myc and Max(S) or 40 ng of Max(L) were used for EMSA assays that included 30 nmol of a (HEX)-tagged double-stranded E-box-containing oligonucleotide (IDT, Coralville, IA, USA). Importantly, the Myc protein excluded the two C-terminal amino acids (Cys438 and Ala439) from the final sequence, thus eliminating a potential reaction site for quinone methide-containing triterpenoids.
# Max(L) homodimers = biological target: T1, Max(L) homodimers (Homo sapiens, UniProt P61244); assay: EMSA, DNA binding by Max(L) homodimers; assay type: biochemical; details: recombinant Max(L)
# T1 construct: full-length His6-tagged Max(S) and His6-tagged Max(L) were expressed and purified as previously described; His6; made in house
# T1 sequence (P61244 whole entry): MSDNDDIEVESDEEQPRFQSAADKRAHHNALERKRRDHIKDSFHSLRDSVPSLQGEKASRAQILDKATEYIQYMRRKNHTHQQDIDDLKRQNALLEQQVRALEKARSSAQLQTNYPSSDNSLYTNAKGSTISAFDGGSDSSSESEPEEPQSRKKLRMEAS
# Description: B. Formation of a typical Michael adduct with cysteine as an example (depicted in blue) is shown. Note that nucleophilic attack by free sulfhydryl-containing molecules occurs at position 6 of the B ring. C. […] Recombinant Myc bHLH-ZIP domain (residues 353-437), and full-length Max(S) and Max(L) were used for EMSAs along with a HEX-tagged, double-stranded oligonucleotide containing a Myc binding E-box element (CACGTG). Max(S) is the 151 residue isoform that homodimerizes efficiently but only binds DNA as a heterodimer in association with Myc. The 160 residue isoform, termed Max(L), that does bind DNA as a homodimer and that closely mimics the Myc-Max(S) association was used as a control. D. Graphical representation of EMSA results from triplicate assays performed as described in C.
# as §1
# [1] = test system: HL60 promyelocytic leukemia cell line; assay: Proliferation inhibition of HL60 cells; assay type: cell-based; details: Homo sapiens, HL-60
# Protocol: (§2) Cell lines were propagated in RPMI medium or Dulbecco's modified Eagle's minimal essential medium (D-MEM), containing 10% fetal bovine serum, 100 units/mL penicillin G and 100 μg/mL streptomycin. Proliferation and viability assays, cells were performed in 96 well plates in the presence of serial dilutions of compounds. Relative cell numbers and viability were determined 2-4 days later using MTT or CellTiter Glo (Promega, Inc. Madison, WI) assays as previously described.
# [2] = test system: Daudi Burkitt lymphoma cell line; assay: Proliferation inhibition of Daudi cells; assay type: cell-based; details: Homo sapiens
# Protocol: as §2
# [3] = test system: N-Myc protein in SK-N-BE(2) cells; assay: N-Myc protein immunoblot in neuroblastoma cells; assay type: cell-based, human; details: within 24 hr
# Protocol: As positive and negative controls, respectively, parallel cultures were exposed to 60 μM 10058-F4 (+) or to DMSO vehicle only. B. SK-N-BE(2) cells treated as described in A were fixed and stained with Oil Red O to delineate lipid droplets. C. SK-N-BE(2) cells were exposed to the indicated amounts of Myc inhibitors for 5 days either in the concurrent absence or presence of nerve growth factor (NGF: 50 ng/ml). Typical fields of unfixed cells were then photographed. Note the presence of longer and more numerous neurite outgrowths in cells exposed to Myc inhibitors (arrows).
# Immunoblotting was performed as previously described. Antibodies included a mouse mAb against human Myc (1:500 dilution: Clone 9E10, Santa Cruz Biotechnology, Inc. Santa Cruz, CA), a mouse mAb against β−actin (1:10,000 dilution: cat. no.3700S Cell Signaling Technology, Inc. Beverly, MA), a mouse mAb against AMPK (1:1000 dilution: catalog no. 2532, Cell Signaling Technology) and a rabbit polyclonal antibody against AMPK phospho-Thr172 (1:1000 dilution, catalog no.2535, Cell Signaling Technologies).
# human myeloma cell lines = assay: Myeloma cell line viability, Cell Titer Glo; assay type: cell-based; details: for differential susceptibilities among myeloma cell lines: discounting U266
# Protocol: (§3) Figure 6 Susceptibilities of multiple myeloma cell lines and primary explants to SBI compounds A. Cell lines. The indicated human myeloma cell lines were treated with the indicated compounds for 3 days at which point the total viable cell count was determined using the Cell Titer Glo assay method. Shown are the IC50 values that were calculated from standard 10-point dose-response curves (Supplementary Figure 3). B. Primary myeloma explants. Myeloma cells were purified from bone marrow aspirates and maintained in culture for 3 days in the presence of varying concentrations of the indicated compounds [86] IC50 values were calculated from dose-response curves (Supplementary Figure 4).
# as §2
# primary myeloma explants = assay: Primary myeloma explant viability; assay type: cell-based; details: for sensitivity of primary myeloma cells: 3 days in culture
# Protocol: as §3, §2
# Primary myeloma samples were obtained from the Norwegian Myeloma Biobank after obtaining approval from the Regional Ethics Committee.
# [4] = test system: NCI-60 cell line collection; assay: NCI-60 cell line screen; assay type: cell-based
# [5] = 3 days, Cell Titer Glo, read-out: mean IC50 over myeloma cell lines
# [6] = EMSA, recombinant Myc bHLH-ZIP and Max(S), read-out: IC50, DNA binding by Myc-Max(S) heterodimers
# Chain of Myc-Max(S) heterodimers (P01106 368-452 limits assumed): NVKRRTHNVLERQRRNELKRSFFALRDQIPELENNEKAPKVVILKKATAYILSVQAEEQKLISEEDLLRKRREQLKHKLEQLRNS
# Chain of Myc-Max(S) heterodimers (P61244 1-151 isoform P61244-2): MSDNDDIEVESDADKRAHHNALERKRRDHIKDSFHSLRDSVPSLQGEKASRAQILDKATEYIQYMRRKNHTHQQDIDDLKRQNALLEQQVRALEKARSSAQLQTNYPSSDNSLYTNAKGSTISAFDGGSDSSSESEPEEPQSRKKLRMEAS
smiles,measurement,setting,value
"CC1=C(O)C(=O)C=C2C1=CC=C1[C@@]2(C)CC[C@@]2(C)[C@@H]3C[C@](C)(C(=O)O)CC[C@]3(C)CC[C@]12C [Celastrol, celastrol, reference compound]",IC50,Myc-Max(S) heterodimers,67 ± 2 µM
same,IC50,Max(L) homodimers,> 140 µM
same,IC50,[1],0.46 ± 0.06 µM
same,IC50,[2],0.09 ± 0.02 µM
same,N-Myc protein level,[3],declined
Cc1sc2c(c1C)C(c1ccc(Cl)cc1)=N[C@@H](CC(=O)OC(C)(C)C)c1nnc(C)n1-2 [JQ1],IC50,human myeloma cell lines; [5],0.25 µM
same,IC50,"human myeloma cell lines; 3 days, U266 excluded, read-out: mean IC50 over myeloma cell lines disregarding U266",0.25 µM
same,fold lower mean IC50 than SBI-0061739,human myeloma cell lines; U266 excluded,< 2 fold
same,differential susceptibilities among myeloma cell lines,human myeloma cell lines,20 fold
same,factor by which JQ1 is more effective than 10058-F4,human myeloma cell lines; mean IC50s,~90
same,sensitivity of primary myeloma cells,primary myeloma explants,resistant
same,effect against primary myelomas,primary myeloma explants; even at concentrations exceeding 10-20 μM,virtually without effect
CC1(C)CCC2(C(=O)O)CCC3(C)C(=CCC4C5(C)CCC(=O)C(C)(C)C5CCC43C)C2C1 (stereo not shown) [SBI-0640599],fold more potent than celastrol,Myc-Max(S) heterodimers,4-6 fold
same,IC50,Myc-Max(S) heterodimers; [6],10 to 15 µM
same,IC50,[1],12 ± 1.28 µM
same,IC50,[2],14.2 ± 3.7 µM
C=C(C)C1CCC2(C(=O)O)CCC3(C)C(CCC4C5(C)Cc6nc7ccccc7nc6C(C)(C)C5CCC43C)C12 (stereo not shown) [SBI-0069272],fold more potent than celastrol,Myc-Max(S) heterodimers,4-6 fold
same,IC50,Myc-Max(S) heterodimers; [6],10 to 15 µM
same,IC50,[1],10.8 ± 2.18 µM
same,IC50,[2],14.3 ± 3.2 µM
"CCc1ccc(C=C2SC(=S)NC2=O)cc1 [10058-F4, [Z,E]-5-[4-ethylbenzylidine]-2-thioxothiazolidin-4-one]",IC50,human myeloma cell lines; [5],21.8 µM
same,differential susceptibilities among myeloma cell lines,human myeloma cell lines,3-4 fold
same,sensitivity of primary myeloma cells,primary myeloma explants,the majority were sensitive
same,N-Myc protein level,[3],declined
C=C(C)C1CCC2(C(=O)O)CCC3(C)C(CCC4C5(C)Cc6nccnc6C(C)(C)C5CCC43C)C12 (stereo not shown) [SBI-0061739],IC50,[1],0.82 ± 0.23 µM
same,IC50,[2],3.19 ± 2.28 µM
same,IC50,"human myeloma cell lines; Homo sapiens, U-266, 72 h, 3 days, U266 excluded, read-out: mean IC50 over myeloma cell lines disregarding U266",0.42 µM
same,IC50,"human myeloma cell lines; Homo sapiens, 8 of 9 cell lines, read-out: IC50 in 8 of 9 myeloma cell lines",< 1 µM
same,IC50,"[4]; 7 of 8 cell lines, read-out: IC50 in renal cancer lines",> 2 µM
same,IC50,"[4]; 17 cell lines (28%), read-out: IC50 in highly sensitive NCI-60 cell lines",< 2 µM
same,IC50,"[4]; all 6 lines, read-out: IC50 in ovarian cancer lines",> 2 µM
C=C(C)C1CCC2(C(=O)O)CCC3(C)C(CCC4C5(C)CCC(=O)C(C)(C)C5CCC43C)C12 (stereo not shown) [SBI-0640601],IC50,Myc-Max(S) heterodimers; [6],10 to 15 µM
same,IC50,[1],13.2 ± 1.74 µM
same,IC50,[2],6.36 ± 1.25 µM
